Results from US20260374756A1, “HETEROCYCLIC COMPOUNDS AS INHIBITORS OF MONOACYLGLYCEROL LIPASE (MAGL)” (Hoffmann-La Roche Inc., priority 2022, published 2026).

Biological target: T1, hMAGL (Homo sapiens, UniProt Q99685)
T1 sequence (Q99685 1-303): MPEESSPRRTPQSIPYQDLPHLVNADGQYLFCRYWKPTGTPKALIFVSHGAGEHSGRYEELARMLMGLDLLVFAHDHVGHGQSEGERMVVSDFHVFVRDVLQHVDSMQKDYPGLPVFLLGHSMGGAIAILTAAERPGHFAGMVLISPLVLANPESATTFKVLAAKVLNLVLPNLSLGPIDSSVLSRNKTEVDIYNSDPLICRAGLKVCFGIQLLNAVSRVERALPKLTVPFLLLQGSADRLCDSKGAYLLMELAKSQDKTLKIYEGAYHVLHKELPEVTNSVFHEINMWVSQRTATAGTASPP
Test: 2-AG assay: MAGL inhibition, hydrolysis of 2-arachidonoylglycerol to arachidonic acid followed by mass spectrometry
Format: biochemical
Summary of the method: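 Read-out is LC-MS/MS of arachidonic acid released from 2-arachidonoylglycerol (8 μM final), normalised to d8-arachidonic acid internal standard after acetonitrile quench. Enzyme […] and compound were pre-mixed 15 min, then reacted 30 min, both at RT, in Tris/EDTA buffer with 0.01% Tween-20 and 2.5% DMSO.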

| Structure (SMILES) | IC50 [nM] |
| --- | --- |
| Cc1cc(C(F)(F)F)n(CC2CC3(C2)CN(C(=O)N2CC4(CC(n5cnc(C6(O)CC6)n5)C4)C2)C3)n1 [Example 73] | 110 |
| Cc1nn(CC(F)(F)F)cc1CN1CC2(C1)CN(C(=O)N1CC3(CC(n4cnc(C5(O)CC5)n4)C3)C1)C2 [Example 111, [6-[3-(1-hydroxycyclopropyl)-1,2,4-triazol-1-yl]-2-azaspiro[3.3]heptan-2-yl]-[6-[[3-methyl-1-(2,2,2-trifluoroethyl)pyrazol-4-yl]methyl]-2,6-diazaspiro[3.3]heptan-2-yl]methanone] | 3900 |
| O=C(N1CC2(CC(n3cnc(C(F)(F)F)n3)C2)C1)N1CC2(CN(Cc3cc(C(F)(F)F)no3)C2)C1 [Example 183, [6-[[3-(trifluoromethyl)isoxazol-5-yl]methyl]-2,6-diazaspiro[3.3]heptan-2-yl]-[6-[3-(trifluoromethyl)-1,2,4-triazol-1-yl]-2-azaspiro[3.3]heptan-2-yl]methanone] | 28.4 |
| Cn1cnc(C#N)c1CN1CC2(C1)CN(C(=O)N1CC3(CC(n4cnc(C5(O)CC5)n4)C3)C1)C2 [Example 282, 5-[[2-[6-[3-(1-hydroxycyclopropyl)-1,2,4-triazol-1-yl]-2-azaspiro[3.3]heptane-2-carbonyl]-2,6-diazaspiro[3.3]heptan-6-yl]methyl]-1-methyl-imidazole-4-carbonitrile] | 3730 |
| O=C(N1CC2(CC(n3cnc(C(F)(F)F)n3)C2)C1)N1CC2(CN(Cc3ccn(CC(F)(F)F)n3)C2)C1 [Example 99, [6-[[1-(2,2,2-trifluoroethyl)pyrazol-3-yl]methyl]-2,6-diazaspiro[3.3]heptan-2-yl]-[6-[3-(trifluoromethyl)-1,2,4-triazol-1-yl]-2-azaspiro[3.3]heptan-2-yl]methanone] | 386 |
| CC(C)(C)c1c[nH]c(CN2CC3(C2)CN(C(=O)N2CC4(CC(n5cnc(C6CC6)n5)C4)C2)C3)n1 [Example 253, [6-[(4-tert-butyl-1H-imidazol-2-yl)methyl]-2,6-diazaspiro[3.3]heptan-2-yl]-[6-(3-cyclopropyl-1,2,4-triazol-1-yl)-2-azaspiro[3.3]heptan-2-yl]methanone] | 38.6 |
| O=C(N1CC2(CC(n3cnc(C4CC4)n3)C2)C1)N1CC2(CN(Cc3noc(C(F)(F)F)n3)C2)C1 [Example 323, [6-(3-cyclopropyl-1,2,4-triazol-1-yl)-2-azaspiro[3.3]heptan-2-yl]-[6-[[5-(trifluoromethyl)-1,2,4-oxadiazol-3-yl]methyl]-2,6-diazaspiro[3.3]heptan-2-yl]methanone] | 36.3 |
| O=C(N1CC2(CC(n3cnc(C(F)(F)F)n3)C2)C1)N1CC2(CN(Cc3nc(C(F)(F)F)cs3)C2)C1 [Example 51] | 17 |
| O=C(N1CC2(CC(n3cnc(C(F)(F)F)n3)C2)C1)N1CC2(CN(Cc3snnc3C3CC3)C2)C1 [Example 89, [6-[(4-cyclopropylthiadiazol-5-yl)methyl]-2,6-diazaspiro[3.3]heptan-2-yl]-[6-[3-(trifluoromethyl)-1,2,4-triazol-1-yl]-2-azaspiro[3.3]heptan-2-yl]methanone] | 312 |
| O=C(N1CC2(CC(n3cnc(C(F)(F)F)n3)C2)C1)N1CC2(CN(Cc3ccnn3C(F)(F)F)C2)C1 [Example 225, [6-[[2-(trifluoromethyl)pyrazol-3-yl]methyl]-2,6-diazaspiro[3.3]heptan-2-yl]-[6-[3-(trifluoromethyl)-1,2,4-triazol-1-yl]-2-azaspiro[3.3]heptan-2-yl]methanone] | 146 |
| O=C(N1CC2(CC(n3cnc(C(F)(F)F)n3)C2)C1)N1CC2(CN(Cc3nc(C(F)(F)F)n[nH]3)C2)C1 [Example 229, [6-[3-(trifluoromethyl)-1,2,4-triazol-1-yl]-2-azaspiro[3.3]heptan-2-yl]-[6-[[3-(trifluoromethyl)-1H-1,2,4-triazol-5-yl]methyl]-2,6-diazaspiro[3.3]heptan-2-yl]methanone] | 1200 |
| O=C(N1CC2(CC(n3cnc(C4CC4)n3)C2)C1)N1CC2(CN(Cc3nccn3CC(F)(F)F)C2)C1 [Example 234, [6-(3-cyclopropyl-1,2,4-triazol-1-yl)-2-azaspiro[3.3]heptan-2-yl]-[6-[[1-(2,2,2-trifluoroethyl)imidazol-2-yl]methyl]-2,6-diazaspiro[3.3]heptan-2-yl]methanone] | 41.3 |
| O=C(N1CC2(CC(n3cnc(C(F)(F)F)n3)C2)C1)N1CC2(CN(Cc3nc(C(F)(F)F)co3)C2)C1 [Example 216] | 102 |
| O=C(N1CC2(CC(n3cnc(C(F)(F)F)n3)C2)C1)N1CC2(CN(Cc3nc(CC4CC4)no3)C2)C1 [Example 264, [6-[[3-(cyclopropylmethyl)-1,2,4-oxadiazol-5-yl]methyl]-2,6-diazaspiro[3.3]heptan-2-yl]-[6-[3-(trifluoromethyl)-1,2,4-triazol-1-yl]-2-azaspiro[3.3]heptan-2-yl]methanone] | 76.3 |
| O=C(N1CC2(CC(n3cnc(C4(O)CC4)n3)C2)C1)N1CC2(CN(Cc3cc(C(F)(F)F)ns3)C2)C1 [Example 152, [6-[3-(1-hydroxycyclopropyl)-1,2,4-triazol-1-yl]-2-azaspiro[3.3]heptan-2-yl]-[6-[[3-(trifluoromethyl)isothiazol-5-yl]methyl]-2,6-diazaspiro[3.3]heptan-2-yl]methanone] | 161 |
| O=C(N1CC2(CC(n3cnc(C4(O)CC4)n3)C2)C1)N1CC2(CN(Cc3nnc(C(F)(F)F)s3)C2)C1 [Example 84, [6-[3-(1-hydroxycyclopropyl)-1,2,4-triazol-1-yl]-2-azaspiro[3.3]heptan-2-yl]-[6-[[5-(trifluoromethyl)-1,3,4-thiadiazol-2-yl]methyl]-2,6-diazaspiro[3.3]heptan-2-yl]methanone] | 2090 |
| CCn1nc(C(F)(F)F)cc1CN1CC2(C1)CN(C(=O)N1CC3(CC(n4cnc(C(F)(F)F)n4)C3)C1)C2 [Example 169] | 8.89 |

Now those with a lower IC50, led by results:

| IC50 [nM] | Structure (SMILES) |
| --- | --- |
| 0.61 | Cn1nc(CC2CC3(C2)CN(C(=O)N2CC4(CC(n5cnc(C6(O)CC6)n5)C4)C2)C3)cc1C(F)(F)F [Example 2, [6-[3-(1-hydroxycyclopropyl)-1,2,4-triazol-1-yl]-2-azaspiro[3.3]heptan-2-yl]-[6-[[1-methyl-5-(trifluoromethyl)pyrazol-3-yl]methyl]-2-azaspiro[3.3]heptan-2-yl]methanone] |
| 0.77 | O=C(N1CC2(CC(Cc3nc(C(F)(F)F)c[nH]3)C2)C1)N1CC2(CC(n3cnc(C4CC4)n3)C2)C1 [Example 351, [6-(3-cyclopropyl-1,2,4-triazol-1-yl)-2-azaspiro[3.3]heptan-2-yl]-[6-[[4-(trifluoromethyl)-1H-imidazol-2-yl]methyl]-2-azaspiro [3.3]heptan-2-yl]methanone] |
| 0.18 | O=C(N1CC2(CC(Cc3nc(C(F)(F)F)ns3)C2)C1)N1CC2(CC(n3cnc(C4CC4)n3)C2)C1 [Example 16] |
| 1.99 | O=C(N1CC2(CC(Cc3cn[nH]c3C(F)(F)F)C2)C1)N1CC2(CC(n3cnc(C(F)F)n3)C2)C1 [Example 346, [6-[3-(difluoromethyl)-1,2,4-triazol-1-yl]-2-azaspiro[3.3]heptan-2-yl]-[6-[[5-(trifluoromethyl)-1H-pyrazol-4-yl]methyl]-2-azaspiro[3.3]heptan-2-yl]methanone] |
| 2.64 | O=C(N1CC2(CC(n3cnc(C4CC4)n3)C2)C1)N1CC2(CN(Cc3cc(C(F)(F)F)ns3)C2)C1 [Example 154, [6-(3-cyclopropyl-1,2,4-triazol-1-yl)-2-azaspiro[3.3]heptan-2-yl]-[6-[[3-(trifluoromethyl)isothiazol-5-yl]methyl]-2,6-diazaspiro[3.3]heptan-2-yl]methanone] |
| 0.96 | CC(C)(C)c1coc(CN2CC3(C2)CN(C(=O)N2CC4(CC(n5cnc(C6CC6)n5)C4)C2)C3)n1 [Example 98, [6-[(4-tert-butyloxazol-2-yl)methyl]-2,6-diazaspiro[3.3]heptan-2-yl]-[6-(3-cyclopropyl-1,2,4-triazol-1-yl)-2-azaspiro[3.3]heptan-2-yl]methanone] |
| 2.57 | O=C(N1CC2(CC(Cc3nsc(C(F)(F)F)n3)C2)C1)N1CC2(CC(n3cnc(C4(O)CC4)n3)C2)C1 [Example 22, [6-[3-(1-hydroxycyclopropyl)-1,2,4-triazol-1-yl]-2-azaspiro[3.3]heptan-2-yl]-[6-[[5-(trifluoromethyl)-1,2,4-thiadiazol-3-yl]methyl]-2-azaspiro[3.3]heptan-2-yl]methanone] |
| 0.64 | CC(C)(C)c1csc(CN2CC3(C2)CN(C(=O)N2CC4(CC(n5cnc(C6CC6)n5)C4)C2)C3)n1 [Example 201, [6-[(4-tert-butylthiazol-2-yl)methyl]-2,6-diazaspiro[3.3]heptan-2-yl]-[6-(3-cyclopropyl-1,2,4-triazol-1-yl)-2-azaspiro[3.3]heptan-2-yl]methanone] |
| 2.22 | O=C(N1CC2(CC(Cn3ncnc3C(F)(F)F)C2)C1)N1CC2(CC(n3cnc(C4CC4)n3)C2)C1 [Example 345, [6-(3-cyclopropyl-1,2,4-triazol-1-yl)-2-azaspiro[3.3]heptan-2-yl]-[6-[[5-(trifluoromethyl)-1,2,4-triazol-1-yl]methyl]-2-azaspiro[3.3]heptan-2-yl]methanone] |
| 3.73 | O=C(N1CC2(CC(n3cnc(C4CC4)n3)C2)C1)N1CC2(CN(Cc3cc(C(F)(F)F)[nH]n3)C2)C1 [Example 242, [6-(3-cyclopropyl-1,2,4-triazol-1-yl)-2-azaspiro[3.3]heptan-2-yl]-[6-[[5-(trifluoromethyl)-1H-pyrazol-3-yl]methyl]-2,6-diazaspiro[3.3]heptan-2-yl]methanone] |
